In US20200022370A1, “MICROBIOCIDAL OXADIAZOLE DERIVATIVES” (SYNGENTA PARTICIPATIONS AG, priority 2016, published 2020):

How the values were obtained:
[1] = system: Puccinia recondita f. Sp. Tritici; test: Puccinia recondita f. sp. tritici / wheat / leaf disc preventative (brown rust); type: in vivo; details: foliar, 200 ppm in the applied formulation, wheat leaf segments cv. Kanzler, inoculated 1 day after application, vs untreated, 7 to 9 days after application, read-out: disease control
Protocol: (§1) Leaf disks or leaf segments of various plant species are cut from plants grown in a greenhouse. The cut leaf disks or segments are placed in multiwell plates (24-well format) onto water agar. The leaf disks are sprayed with a test solution before (preventative) or after (curative) inoculation. Compounds to be tested are prepared as DMSO solutions (max. 10 mg/ml) which are diluted to the appropriate concentration with 0.025% Tween20 just before spraying. The inoculated leaf disks or segments are incubated under defined conditions (temperature, relative humidity, light, etc.) according to the respective test system. A single evaluation of disease level is carried out 3 to 14 days after inoculation, depending on the pathosystem. Percent disease control relative to the untreated check leaf disks or segments is then calculated.
Example 1: Fungicidal Activity Against Puccinia recondita f. Sp. Tritici/Wheat/Leaf Disc Preventative (Brown Rust)
Wheat leaf segments cv. Kanzler were placed on agar in multiwell plates (24-well format) and sprayed with the Formulated test compound diluted in water. The leaf disks were inoculated with a spore suspension of the fungus 1 day after application. The inoculated leaf segments were incubated at 19° C. and 75% relative humidity (rh) under a light regime of 12 hours light/12 hours darkness in a climate cabinet and the activity of a compound was assessed as percent disease control compared to untreated when an appropriate level of disease damage appears in untreated check leaf segments (7 to 9 days after application).
(§2) The following compounds at 200 ppm in the applied Formulation give at least 80% disease control in this test when compared to untreated control leaf disks under the same conditions, which show extensive disease development.

Phakopsora pachyrhizi = Phakopsora pachyrhizi / soybean / leaf disc preventative (Asian soybean rust); type: in vivo; details: foliar, 200 ppm in the applied formulation, soybean leaf disks, inoculated one day after application, vs untreated, 12 to 14 days after application, read-out: disease control
Protocol: as §1
Example 3: Fungicidal Activity Against Phakopsora pachyrhizi/Soybean/Leaf Disc Preventative (Asian Soybean Rust)
Soybean leaf disks are placed on water agar in multiwell plates (24-well format) and sprayed with the Formulated test compound diluted in water. One day after application leaf discs are inoculated by spraying a spore suspension on the lower leaf surface. After an incubation period in a climate cabinet of 24-36 hours in darkness at 20° C. and 75% rh leaf disc are kept at 20° C. with 12 h light/day and 75% rh. The activity of a compound is assessed as percent disease control compared to untreated when an appropriate level of disease damage appears in untreated check leaf disks (12 to 14 days after application).
as §2

[2] = system: Glomerella lacenarium (Colletotrichum lacenarium); test: Glomerella lacenarium (Colletotrichum lacenarium) liquid culture / cucumber / preventative (anthracnose); type: cell-based; details: 20 ppm, liquid culture in PDB, 24° C., inhibition of growth measured photometrically 3 to 4 days after application, vs untreated, read-out: disease control
Protocol: Mycelia fragments or conidia suspensions of a fungus prepared either freshly from liquid cultures of the fungus or from cryogenic storage, are directly mixed into nutrient broth. DMSO solutions of the test compound (max. 10 mg/ml) are diluted with 0.025% Tween20 by a factor of 50 and 10 μl of this solution is pipetted into a microtiter plate (96-well format). The nutrient broth containing the fungal spores/mycelia fragments is then added to give an end concentration of the tested compound. The test plates are incubated in the dark at 24° C. and 96% relative humidity. The inhibition of fungal growth is determined photometrically after 2 to 7 days, depending on the pathosystem, and percent antifungal activity relative to the untreated check is calculated.
Example 4: Fungicidal Activity Against Glomerella lacenarium (Colletotrichum lacenarium) Liquid Culture/Cucumber/Preventative (Anthracnose)
Conidia of the fungus from cryogenic storage are directly mixed into nutrient broth (PDB-potato dextrose broth). After placing a (DMSO) solution of test compound into a microtiter plate (96-well format), the nutrient broth containing the fungal spores is added. The test plates are incubated at 24° C. and the inhibition of growth is measured photometrically 3 to 4 days after application.
The following compounds at 20 ppm in the applied Formulation give at least 80% disease control in this test when compared to untreated control under the same conditions, which show extensive disease development.

Structure (SMILES)	pest or weed control at 200 ppm [1]	pest or weed control at 200 ppm (Phakopsora pachyrhizi)	inhibition of growth at 20 ppm [2]
O=C(Cc1ccc2c(c1)OCO2)Nc1ccc(-c2noc(C(F)(F)F)n2)cc1 [Compound 1.12, 2-(1,3-benzodioxol-5-yl)-N-[4-[5-(trifluoromethyl)-1,2,4-oxadiazol-3-yl]phenyl]acetamide]	≥ 80%	≥ 80%	≥ 80%
CCC(=O)Nc1ccc(CC(=O)Nc2ccc(-c3noc(C(F)(F)F)n3)cc2)cc1 [Compound 1.27, N-[4-[2-oxo-2-[4-[5-(trifluoromethyl)-1,2,4-oxadiazol-3-yl]anilino]ethyl]phenyl]propanamide]	–	≥ 80%	–
COc1ncnc(OC)c1CC(=O)Nc1ccc(-c2noc(C(F)(F)F)n2)cc1 [Compound 1.36, 2-(4,6-dimethoxypyrimidin-5-yl)-N-[4-[5-(trifluoromethyl)-1,2,4-oxadiazol-3-yl]phenyl]acetamide]	≥ 80%	≥ 80%	≥ 80%
COCc1nc(C)c(C(=O)Nc2ccc(-c3noc(C(F)(F)F)n3)nc2)s1 [Compound 1.51, 2-(methoxymethyl)-4-methyl-N-[6-[5-(trifluoromethyl)-1,2,4-oxadiazol-3-yl]-3-pyridyl]thiazole-5-carboxamide]	–	≥ 80%	–
CC(C)(C(=O)Nc1ccc(-c2noc(C(F)(F)F)n2)nc1)c1ncc(Cl)cc1Cl [Compound 1.53, 2-(3,5-dichloro-2-pyridyl)-2-methyl-N-[6-[5-(trifluoromethyl)-1,2,4-oxadiazol-3-yl]-3-pyridyl]propanamide]	–	≥ 80%	–
O=C(Nc1ccc(-c2noc(C(F)(F)F)n2)nc1)c1ccc(-n2ccnc2)cc1 [Compound 1.54, 4-imidazol-1-yl-N-[6-[5-(trifluoromethyl)-1,2,4-oxadiazol-3-yl]-3-pyridyl]benzamide]	≥ 80%	≥ 80%	≥ 80%
O=C(Nc1ccc(-c2noc(C(F)(F)F)n2)cc1)C1=CCCC1 [Compound 1.81, N-[4-[5-(trifluoromethyl)-1,2,4-oxadiazol-3-yl]phenyl] cyclopentene-1-carboxamide]	–	≥ 80%	≥ 80%
CCC(CC)C(=O)Nc1ccc(-c2noc(C(F)(F)F)n2)cc1 [Compound 1.91, 2-ethyl-N-[4-[5-(trifluoromethyl)-1,2,4-oxadiazol-3-yl]phenyl]butanamide]	–	≥ 80%	≥ 80%
O=C(Nc1ccc(-c2noc(C(F)(F)F)n2)cc1)C1CCSCC1 [Compound 1.96, N-[4-[5-(trifluoromethyl)-1,2,4-oxadiazol-3-yl]phenyl] tetrahydrothiopyran-4-carboxamide]	≥ 80%	–	≥ 80%
O=C(CC1CC(F)(F)C1)Nc1ccc(-c2noc(C(F)(F)F)n2)cc1 [Compound 1.97, 2-(3,3-difluorocyclobutyl)-N-[4-[5-(trifluoromethyl)-1,2,4-oxadiazol-3-yl]phenyl]acetamide]	≥ 80%	–	≥ 80%
O=C(CCCC=C(F)F)Nc1ccc(-c2noc(C(F)(F)F)n2)cc1 [Compound 1.98, 6,6-difluoro-N-[4-[5-(trifluoromethyl)-1,2,4-oxadiazol-3-yl]phenyl]hex-5-enamide]	≥ 80%	–	≥ 80%
O=C(Cc1ccccc1F)Nc1ccc(-c2noc(C(F)(F)F)n2)cc1 [Compound 1.100, 2-(2-fluorophenyl)-N-[4-[5-(trifluoromethyl)-1,2,4-oxadiazol-3-yl]phenyl]acetamide]	≥ 80%	–	≥ 80%
CC(CO)(CCl)C(=O)Nc1ccc(-c2noc(C(F)(F)F)n2)cc1 (stereo not drawn) [Compound 1.103, 2-(chloromethyl)-3-hydroxy-2-methyl-N-[4-[5-(trifluoromethyl)-1,2,4-oxadiazol-3-yl]phenyl] propanamide]	≥ 80%	–	≥ 80%
O=C(CCc1cccnc1)Nc1ccc(-c2noc(C(F)(F)F)n2)cc1 [Compound 1.105, 3-(3-pyridyl)-N-[4-[5-(trifluoromethyl)-1,2,4-oxadiazol-3-yl]phenyl] propanamide]	≥ 80%	–	≥ 80%
O=C1CC(C(=O)Nc2ccc(-c3noc(C(F)(F)F)n3)cc2)C1 [Compound 1.106, 3-oxo-N-[4-[5-(trifluoromethyl)-1,2,4-oxadiazol-3-yl]phenyl]cyclo-butanecarboxamide]	≥ 80%	–	≥ 80%
O=C(Nc1ccc(-c2noc(C(F)(F)F)n2)cc1)C1OCCO1 [Compound 1.113, N-[4-[5-(trifluoromethyl)-1,2,4-oxadiazol-3-yl]phenyl]-1,3-dioxolane-2-carboxamide]	≥ 80%	–	≥ 80%
O=C(Cc1cc(C(F)(F)F)ccn1)Nc1ccc(-c2noc(C(F)(F)F)n2)cc1 [Compound 1.115, N-[4-[5-(trifluoromethyl)-1,2,4-oxadiazol-3-yl]phenyl]-2-[4-(trifluoromethyl)-2-pyridyl]acetamide]	≥ 80%	–	≥ 80%
O=C(Nc1ccc(-c2noc(C(F)(F)F)n2)cc1)C(F)F [Compound 1.120, 2,2-difluoro-N-[4-[5-(trifluoromethyl)-1,2,4-oxadiazol-3-yl]phenyl]acetamide]	≥ 80%	–	≥ 80%
COCCOCC(=O)Nc1ccc(-c2noc(C(F)(F)F)n2)cc1 [Compound 1.122, 2-(2-methoxyethoxy)-N-[4-[5-(trifluoromethyl)-1,2,4-oxadiazol-3-yl]phenyl]acetamide]	≥ 80%	–	≥ 80%
CN(C(=O)C1CC1(F)F)c1ccc(-c2noc(C(F)(F)F)n2)cc1 (stereo not drawn) [Compound 1.133, 2,2-difluoro-N-methyl-N-[4-[5-(trifluoromethyl)-1,2,4-oxadiazol-3-yl]phenyl]cyclo-propanecarboxamide]	–	≥ 80%	–
CC1CC1C(=O)N(C)c1ccc(-c2noc(C(F)(F)F)n2)cc1 (stereo not drawn) [Compound 1.137, N,2-dimethyl-N-[4-[5-(trifluoromethyl)-1,2,4-oxadiazol-3-yl]phenyl]cyclo-propanecarboxamide]	–	≥ 80%	≥ 80%
CN(C(=O)C1(C)CC1)c1ccc(-c2noc(C(F)(F)F)n2)cc1 [Compound 1.138, N,1-dimethyl-N-[4-[5-(trifluoromethyl)-1,2,4-oxadiazol-3-yl]phenyl]cyclo-propanecarboxamide]	–	≥ 80%	–
O=C(Nc1ccc(-c2noc(C(F)(F)F)n2)cc1)C1CCCC1 [Compound 2.6, N-[4-[5-(trifluoromethyl)-1,2,4-oxadiazol-3-yl]phenyl] cyclopentane-carboxamide]	≥ 80%	–	≥ 80%
O=C(Nc1ccc(-c2noc(C(F)(F)F)n2)cc1)C1CCC1 [Compound 2.9, N-[4-[5-(trifluoromethyl)-1,2,4-oxadiazol-3-yl]phenyl] cyclobutane-carboxamide]	≥ 80%	–	≥ 80%
CCC(=O)N(OC)c1ccc(-c2noc(C(F)(F)F)n2)cc1 [Compound 2.28, N-methoxy-N-[4-[5-(trifluoromethyl)-1,2,4-oxadiazol-3-yl]phenyl] propanamide]	–	≥ 80%	≥ 80%
